Laboratory results: patent publication US8080565B2, “Substituted 4-amino-benzylpiperidine compounds” (Theravance, Inc., priority 2003, dated 2011)

Key:
[1] = tested on: oxotremorine-induced salivation; assay: In vivo rat salivation assay; details: for ID50 bladder/salivation selectivity ratio: comparison of ID50 values of rat bladder assay and rat salivation assay
Experimental: Female Sprague-Dawley rats weighing 200 to 300 g were anesthetized with urethane (1.5 g/kg, s.c., Sigma, St. Louis, Mo.), with a supplement of 0.25 g/kg, s.c. urethane as needed. Urethane was administered at a concentration of 0.25 g/mL.
Rats were placed on a heated blanket on their dorsal side in an inclined position (20° angle) position (head down). A swab was placed in the rat's mouth. The test compound or vehicle was administered intravenously via the tail vein. After 5 min., oxotremorine (1.0 mg/kg) was administered subcutaneously. The swab was discarded and replaced by a pre-weighed swab. Saliva was then collected for 10 min. and then the swab was removed and re-weighed to determine the output of saliva. Dose-response curves were fitted with a four parameter logistic equation to obtain estimates of ID50 (dose required to produce 50% of the maximal response).
By comparing the ID50 values determined in the rat bladder assay and rat salivation assay, the in vivo bladder/salivation selectivity ratio was calculated for the compounds tested.

[2] = tested on: volume-induced bladder contraction amplitude (VIBCAmp); assay: In vivo rat bladder assay; details: anesthetized female Sprague-Dawley rats; intravenous; normalized to atropine response
Experimental: Female Sprague-Dawley rats (Harlan, Indianapolis, Ind.) weighing 200 to 300 g were anesthetized with urethane (1.5 g/kg, s.c., Sigma, St. Louis, Mo.), with a supplement of 0.25 g/kg, s.c. urethane as needed. Urethane was administered at a concentration of 0.25 g/mL.
Rats were prepared for surgery by shaving the neck and abdomen and cleansing with ethanol wipes. First, an incision was made on the ventral surface. An intravenous catheter was placed by isolating and ligating the femoral vein. […]
Thereafter, an intravenous dose of the test compound was administered and changes in VIBCAmp were recorded for 15 minutes. Atropine (0.1 mg/kg) was then administered intravenously (1 mL/kg) as a positive control and VIBCAmp and data was recorded for an additional 15 minutes. […]
Alternatively, after the vehicle, increasing cumulative intravenous doses of the test compound were administered at 15 minute intervals (1 mL/kg) and changes in VIBCAmp were recorded for 15 minutes. […]
The average VIBCAmp during the 5-15 minute period after test compound and atropine was determined and subtracted from the average VIBCAmp during the 5-15 minute post-vehicle period to obtain the test compound or atropine-induced change in VIBCAmp. […]

[3] = biological target: T1, hM3 muscarinic receptor subtype (Homo sapiens, UniProt P20309); assay: Radioligand binding assay ([3H]NMS displacement), hM3; details: ratio of Ki values
T1 construct: expressed in transfected cells; membrane preparation
Experimental: (§1) A. Membrane Preparation from Cells Expressing hM1, hM2, hM3 and hM4 Muscarnic Receptor Subtypes
(§2) CHO (Chinese hamster ovary) cell lines stably expressing cloned human hM1, hM2, hM3 and hM4 muscarinic receptor subtypes, respectively, were grown to near confluency in medium consisting of HAM's F-12 supplemented with 10% FBS (Fetal Bovine Serum) and 250 μg/mL Geneticin. The cells were grown in a 5% CO2, 37° C. incubator and lifted with dPBS+2 mM EDTA. Cells were collected by 5 minute centrifugation at 650×g, and cell pellets were either stored frozen at −80° C. or membranes were prepared immediately. […] Protein concentration of the membrane suspension was determined by the method of Lowry, O. et al., (1951) Journal of Biochemistry: 193, 265. […]
(§3) Radioligand binding assays were performed in 96-well microtiter plates in a total assay volume of 100 μL. […] Filter plates were rinsed three times with wash buffer (10 mM HEPES) to remove unbound radioactivity. […] The plates were then counted in a PerkinElmer Topcount liquid scintillation counter (PerkinElmer Inc., Wellesley, Mass.). Binding data were analyzed by nonlinear regression analysis with the GraphPad Prism Software package (GraphPad Software, Inc., San Diego, Calif.) using the one-site competition model. […]

[4] = biological target: T2, hM2 muscarinic receptor subtype (Homo sapiens, UniProt P08172); assay: Radioligand binding assay ([3H]NMS displacement), hM2; details: [3H]NMS at 1 nM; membranes of CHO cells expressing hM2
T2 construct: expressed in transfected cells; membrane preparation
T2 sequence (P08172 1-466): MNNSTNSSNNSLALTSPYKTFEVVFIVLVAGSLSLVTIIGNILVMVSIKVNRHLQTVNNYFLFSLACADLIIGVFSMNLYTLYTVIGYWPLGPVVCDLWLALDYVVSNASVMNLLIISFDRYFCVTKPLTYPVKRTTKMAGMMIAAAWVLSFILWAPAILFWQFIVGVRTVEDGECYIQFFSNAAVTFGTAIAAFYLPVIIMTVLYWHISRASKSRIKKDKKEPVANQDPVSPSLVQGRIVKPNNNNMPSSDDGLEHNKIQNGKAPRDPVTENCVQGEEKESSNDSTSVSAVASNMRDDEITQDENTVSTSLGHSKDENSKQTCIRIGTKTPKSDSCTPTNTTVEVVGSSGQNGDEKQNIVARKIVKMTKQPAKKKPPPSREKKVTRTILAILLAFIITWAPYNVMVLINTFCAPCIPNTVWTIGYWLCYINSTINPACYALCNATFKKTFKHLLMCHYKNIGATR
Experimental: as §1, §2, §3

hM2 receptor = biological target: T3, hM2 receptor (Homo sapiens, UniProt P08172); assay: Blockade of agonist-mediated GTPγ[35S] binding; assay type: biochemical; details: CHO-K1 cell membranes expressing hM2; carbachol at EC90
T3 construct: expressed in transfected cells; membrane preparation
T3 sequence (P08172 1-466): T2 sequence (P08172 1-466)
Experimental: A. Blockade of Agonist-Mediated GTPγ[^35S] Binding
In this assay, the functional potency of a test compound was determined by measuring the ability of the test compound to block carbachol-stimulated GTPγ[^35S] binding in CHO-K1 cells expressing the hM2 receptor.
CHO-K1 cells stably expressing the hM2 muscarinic receptor were grown in medium consisting of Hams F-12 media supplemented with 10% Fetal Bovine Serum and 500 μg/ml of Geneticin (G-418). Cells were incubated in a 5% CO2, humidified incubator at 37° C. Cells were grown to confluence and harvested with dPBS+2 mM EDTA and pelleted by centrifugation at 250×g for 10 minutes.
Cells from the centrifuged pellets were resuspended in homogenization buffer (10 mM HEPES, 10 mM EDTA, pH 7 at 4° C.). […]
To determine the ability of a test compound to inhibit carbachol-stimulated GTPγ[^35S] binding, the following was added to each well of 96 well plates: 25 μL of assay buffer with GTPγ[^35S] and GDP, 25 μL of diluted test compound (prepared as described above), and 25 μL CHO cell membranes expressing the hM2 receptor. […] After the pre-incubation period, 25 μL of carbachol at the final concentration of its EC90 value determined earlier in the day was added to each plate. […]
Test compound potency (IC50) was determined using iterative curve fitting (GraphPad Prism 3.0 software; single site competition curve). […]

T1 sequence (P20309 whole entry): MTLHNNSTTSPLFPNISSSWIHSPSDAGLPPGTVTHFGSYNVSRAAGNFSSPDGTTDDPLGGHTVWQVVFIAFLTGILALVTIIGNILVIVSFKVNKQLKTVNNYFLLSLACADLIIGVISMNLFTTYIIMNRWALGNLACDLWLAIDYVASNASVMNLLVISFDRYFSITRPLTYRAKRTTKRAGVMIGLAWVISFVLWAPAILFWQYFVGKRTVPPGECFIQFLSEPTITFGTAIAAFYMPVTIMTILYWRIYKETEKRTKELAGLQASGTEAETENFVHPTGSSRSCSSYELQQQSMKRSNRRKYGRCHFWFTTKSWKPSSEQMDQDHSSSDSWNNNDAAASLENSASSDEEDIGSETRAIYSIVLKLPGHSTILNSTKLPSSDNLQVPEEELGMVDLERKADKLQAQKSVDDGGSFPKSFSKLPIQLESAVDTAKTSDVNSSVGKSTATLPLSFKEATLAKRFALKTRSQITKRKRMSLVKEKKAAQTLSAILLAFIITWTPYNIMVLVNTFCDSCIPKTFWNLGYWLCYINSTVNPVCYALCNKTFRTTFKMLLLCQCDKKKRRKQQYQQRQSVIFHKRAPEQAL

Row | Compound | ID50 bladder/salivation selectivity ratio [1] | ID50 (rat bladder assay) [2] | ID50 (rat salivation assay) ([1]; anesthetized female Sprague-Dawley rats, intravenous, oxotremorine 1.0 mg/kg s.c.) | hM3/hM2 ratio [3] | Ki [4] | Ki (hM2 receptor)
1 | CCN(CC)CC#CCOC(=O)C(O)(c1ccccc1)C1CCCCC1 (centres unmarked) [oxybutynin, reference compound] | about 1.4 | – | – | – | – | –
2 | COc1cccc(OC)c1CN1CCC(N(C)CCCCOCCCCN2CC[C@@H](C(C(N)=O)(c3ccccc3)c3ccccc3)C2)CC1 [Example 4] | greater than 10 | less than or equal to 0.1 mg/kg | greater than or equal to 1 mg/kg | greater than or equal to 5 | < 20 nM | < 10 nM
3 | Cc1ccc(O)c([C@H](CCN(C(C)C)C(C)C)c2ccccc2)c1 [tolterodine, reference compound] | ~4.8 | – | – | – | – | –
